# Tests used:
# T-47D = experiment: Caspase cascade activation in T-47D cells (N-(Ac-DEVD)-N'-ethoxycarbonyl-R110 fluorogenic substrate); assay type: cell-based; conditions: T-47D human breast cancer cells, 24 h incubation; for T-47D Ratio (caspase activity): ratio of net RFU of test compound to control
# Procedure: (§1) Human breast cancer cell lines T47D and ZR-75-1 were grown according to media component mixtures designated by American Type Culture Collection+10% FCS (Invitrogen Corporation), in approximately 5% CO2-95% humidity incubator at approximately 37° C. T-47D and ZR-75-1 cells were maintained at a cell density between 30 and 80% confluency at a cell density of 0.1 to 0.6×10^6 cells/mL. Cells were harvested at approximately 600×g and resuspended at approximately 0.65×10^6 cells/mL into appropriate media plus approximately 10% FCS. An aliquot of approximately 45 μl of cells was added to a well of a 96-well microtiter plate containing approximately 5 μl of a solution of approximately 10% DMSO in RPMI-1640 media solution containing approximately 0.16 to 10 μM of the test compounds (0.016 to 1 μM final). An aliquot of approximately 45 μl of cells was added to a well of a 96-well microtiter plate containing approximately 5 μl of a solution of approximately 10% DMSO in RPMI-1640 media solution without test compound as the control sample. The samples were mixed by agitation and then incubated at approximately 37° C. for approximately 24 h in approximately 5% CO2-95% humidity incubator. After incubation, the samples were removed from the incubator and approximately 50 μl of a solution containing approximately 20 μM of N-(Ac-DEVD)-N′-ethoxycarbonyl-R110 fluorogenic substrate, SEQ ID NO:1 (Cytovia, Inc.; U.S. Pat. No. 6,335,429), comprising approximately 20% sucrose (Sigma), 20 mM DTT (Sigma), 200 mM NaCl (Sigma), 40 mM Na PIPES buffer at approximate pH 7.2 (Sigma), and approximately 500 μg/ml lysolecithin (Calbiochem) was added. The samples were mixed by agitation and incubated at room temperature. Using a fluorescent plate reader (Model 1420 Wallac Instruments), an initial reading (T=0) was made approximately 1-2 min after addition of the substrate solution, employing excitation at 485 nm and emission at […], to determine the background fluorescence of the control sample. After the 3 h incubation, the samples were read for fluorescence as above (T=3 h).
# (§2) The Relative Fluorescence Unit values (RFU) were used to calculate the sample readings as follows: RFU(T=3h)−Control RFU(T=0)=Net RFU(T=3h)
# (§3) The activity of caspase cascade activation was determined by the ratio of the net RFU value for the test compounds to that of control samples. The EC50 (nM) was determined by a sigmoidal dose-response calculation (Prism 2.0, GraphPad Software Inc.).
# ZR-75-1 = experiment: Caspase cascade activation in ZR-75-1 cells (N-(Ac-DEVD)-N'-ethoxycarbonyl-R110 fluorogenic substrate); assay type: cell-based; conditions: ZR-75-1 human breast cancer cells, 24 h incubation; for ZR-75-1 Ratio (caspase activity): ratio of net RFU of test compound to control; for EC50: sigmoidal dose-response
# Procedure: as §1, §2, §3
molecule,measurement,setting,value
"2-Amino-3-cyano-4-(3-bromo-4,5-dimethoxyphenyl)-4H-triazo[4,5-h]chromene [Example 1]",T-47D Ratio (caspase activity),T-47D,1.8
same,EC50,T-47D; sigmoidal dose-response,> 1 µM
same,ZR-75-1 Ratio (caspase activity),ZR-75-1,5.3
same,EC50,ZR-75-1,0.56 µM
"COc1cc(C2C(C#N)=C(N)Oc3c2ccc2oc(=O)[nH]c32)cc(Br)c1OC (centres unmarked) [Example 2, 2-Amino-3-cyano-4-(3-bromo-4,5-dimethoxyphenyl)-8-oxo-4,8,9-trihydro-oxazo[5,4-h]chromene]",T-47D Ratio (caspase activity),T-47D,6.4
same,EC50,T-47D; sigmoidal dose-response,0.567 µM
same,ZR-75-1 Ratio (caspase activity),ZR-75-1,8.5
same,EC50,ZR-75-1,0.366 µM
"COc1cc(C2C(C#N)=C(N)Oc3c2ccc2oc(=O)n(C)c32)cc(Br)c1OC (centres unmarked) [Example 3, 2-Amino-3-cyano-4-(3-bromo-4,5-dimethoxyphenyl)-8-oxo-4,8-dihydro-9-methyl-oxazo[5,4-h]chromene]",T-47D Ratio (caspase activity),T-47D,1.5
same,T-47D EC50 (nM),T-47D; sigmoidal dose-response,Inactive
same,ZR-75-1 Ratio (caspase activity),ZR-75-1,2.7
"COC=NC1=C(C#N)C(c2cc(Br)c(OC)c(OC)c2)c2ccc3ocnc3c2O1 (centres unmarked) [Example 4, 2-Methoxymethylimine-3-cyano-4-(3-bromo-4,5-dimethoxyphenyl)-4H-oxazo[5,4-h]chromene]",T-47D Ratio (caspase activity),T-47D,8.1
same,EC50,T-47D; sigmoidal dose-response,0.0472 µM
same,ZR-75-1 Ratio (caspase activity),ZR-75-1,7.9
same,EC50,ZR-75-1,0.023 µM
"COc1cc(C2C(C#N)=C(N)Oc3c2ccc2[nH]c(=O)oc32)cc(Br)c1OC (centres unmarked) [Example 5, 2-Amino-3-cyano-4-(3-bromo-4,5-dimethoxyphenyl)-8-oxo-4,7,8-trihydro-oxazo[4,5-h]chromene]",T-47D Ratio (caspase activity),T-47D,8.6
same,EC50,T-47D; sigmoidal dose-response,0.285 µM
same,ZR-75-1 Ratio (caspase activity),ZR-75-1,4.5
same,EC50,ZR-75-1,0.156 µM
"COc1cc(C2C(C#N)=C(N)Oc3c2ccc2c3oc(=O)n2C)cc(Br)c1OC (centres unmarked) [Example 6, 2-Amino-3-cyano-4-(3-bromo-4,5-dimethoxyphenyl)-8-oxo-4,8-dihydro-7-methyl-oxazo[4,5-h]chromene]",T-47D Ratio (caspase activity),T-47D,6.5
same,EC50,T-47D; sigmoidal dose-response,0.0118 µM
"COc1cc(C2C(C#N)=C(N)Oc3c2ccc2ncoc32)cc(Br)c1OC (centres unmarked) [Example 7, 2-Amino-3-cyano-4-(3-bromo-4,5-dimethoxyphenyl)-4H-oxazo[4,5-h]chromene]",T-47D Ratio (caspase activity),T-47D,7.8
same,EC50,T-47D; sigmoidal dose-response,0.0687 µM
same,ZR-75-1 Ratio (caspase activity),ZR-75-1,9.8
same,EC50,ZR-75-1,0.043 µM
"COc1cc(C2C(C#N)=C(N)Oc3c2ccc2ocnc32)cc(Br)c1OC (centres unmarked) [Example 8, 2-Amino-3-cyano-4-(3-bromo-4,5-dimethoxyphenyl)-4H-oxazo[5,4-h]chromene]",T-47D Ratio (caspase activity),T-47D,7.9
same,EC50,T-47D; sigmoidal dose-response,0.0351 µM
same,ZR-75-1 Ratio (caspase activity),ZR-75-1,7.2
same,EC50,ZR-75-1,0.0129 µM

# — patent publication US6858607B1, “7,8-fused 4H-chromene and analogs as activators of caspases and inducers of apoptosis and the use thereof” (Cytovia, Inc., priority 2001, dated 2005)
